Source: publication PMC9697349, “Mouse Pharmacokinetics and In Vitro Metabolism of SH-11037 and SH-11008, Synthetic Homoisoflavonoids for Retinal Neovascularization” (Pharmaceutics, 2022)

What was measured:
[1] = Mouse pharmacokinetics, single i.v. dose; format: in vivo; conditions: plasma, iv, single i.v. dose of SH-11008 3 mg/kg, male ICR mice
Description: (§1) Pharmacokinetic studies were performed with male ICR mice (8 weeks old, 30~35 g) purchased from Koatech Co. (Kyunggi, Korea) as reported previously. Test compounds were dissolved at 1 mg/mL in DMA/Tween 80/20% aqueous HPβCD (10/10/80 vol%) to prepare the dosing solutions. SH-11037 was administered by oral (p.o.) gavage at a dose of 10 mg/kg and a dose volume of 10 mL/kg (equimolar to 6 mg/kg of SH-11008) or intravenously (i.v.) via tail vein injection at a dose of 5 mg/kg and a dose volume of 5 mL/kg (equimolar to 3 mg/kg of SH-11008), respectively. SH-11008 was administered p.o. at a dose of 6 mg/kg and a dose volume of 6 mL/kg or i.v. at a dose of 3 mg/kg and a dose volume of 3 mL/kg, respectively. Plasma samples were analyzed as described below in Section 2.6.1.
Calibration standards and quality control (QC) samples were prepared by spiking 15 μL of blank plasma with 5 μL of analyte working solution prepared in 50 vol% aqueous CH3CN. For sample preparation, 15 μL aliquots of plasma samples combined with 5 μL of 50 vol% aqueous CH3CN were mixed with 3 volumes of ice-cold CH3CN containing glipizide (500 ng/mL) as the IS. The mixture was vortexed, sonicated, and centrifuged at 3000× g for 20 min. The supernatant was then mixed with the same volume of HPLC grade water before analysis. Sample analyses were conducted using Agilent 1290 Infinity HPLC system coupled to Agilent 6460 Triple Quadrupole LC-MS/MS system equipped with Jet Stream ESI ion source (Agilent Technologies Korea, Seoul, Korea). Chromatographic separation was performed on an Agilent Eclipse Plus C18 column (2.1 × 100 mm, 3.5 μm) with a Phenomenex Security Guard C18 guard column (4 × 20 mm) maintained at 40 °C. The mobile phase consisted of 0.1% formic acid in deionized water (A) and 0.1% formic acid in CH3CN (B): 0~2 min 5% B, 2~3 min to 95% B, and 3~6.5 min 95% B. Total run time including a 3 min equilibration time was 9.5 min. The flow rate was 0.45 mL/min. The injection volume was 5 µL. Detection of the analyte ions was performed in the positive multiple reaction monitoring (MRM) mode, with the following mass transitions (precursor > product): m/z 644 > 588, 397 > 367, and 446 > 321 for SH-11037, SH-11008 and IS, respectively. […] The lower limit of quantitation of SH-11037 and SH-11008 were 0.24 and 0.48 ng/mL, respectively, with a signal-to-noise ratio based on root mean square noise > 10. The calibration curves were linear in the range of 0.24–500 ng/mL (r^2 > 0.997) for SH-11037 and 0.48–500 ng/mL (r^2 > 0.998) for SH-11008, respectively. The precision and accuracy of the analytical method were evaluated with the QC samples prepared in triplicate at 5, 250, and 400 ng/mL for both of SH-11037 and SH-11008: the coefficient of variation (%CV) and the relative error (%RE) were in the ranges of −21.23~5.72% and 1.47~12.30% for SH-11037 and −22.85~4.96% and 1.2~13.8% for SH-11008, respectively. Extraction recovery, matrix effect, and process efficiency were in the ranges of 91.8~107.1%, 86.3~99.9%, and 88.8~100.8% for SH-11037 and 88.9~103.8%, 88.9~100.0%, and 80.0~97.4% for SH-11008, respectively. Quantitative analysis data were obtained with Agilent Mass Hunter Quantitative Analysis QQQ (ver. B.05.00) software.
Pharmacokinetic parameters were calculated by noncompartmental analysis of plasma concentration versus time profiles using PKSolver. The scaling factors of mice and human, half-life (t1/2), intrinsic clearance (CLint), hepatic clearance (CLH), and hepatic extraction ratio (EH) were from the in vitro studies as described previously. […] The fraction of parent drug converted to the metabolite (fm) was calculated as follows:fm (%) = (AUC(m) × CL(m))/D × MWparent/MWmetabolite × 100,(1) where D is dose of the parent drug, AUC(m) is area under the curve for the metabolite after a dose of parent drug, CL(m) is CL of metabolite, and MW is molecular weight.

[2] = Mouse pharmacokinetics, single p.o. dose; format: in vivo; conditions: mice
Description: as §1, with “SH-11008 was administered p.o. at a dose of 6 mg/kg and a dose volume of 6 mL/kg or i.v. at a dose of 3 mg/kg and a dose volume of 3 mL/kg, respectively.” left out
Calibration standards and quality control (QC) samples were prepared by spiking 15 μL of blank plasma with 5 μL of analyte working solution prepared in 50 vol% aqueous CH3CN. […] The lower limit of quantitation of SH-11037 and SH-11008 were 0.24 and 0.48 ng/mL, respectively, with a signal-to-noise ratio based on root mean square noise > 10. […] The precision and accuracy of the analytical method were evaluated with the QC samples prepared in triplicate at 5, 250, and 400 ng/mL for both of SH-11037 and SH-11008: the coefficient of variation (%CV) and the relative error (%RE) were in the ranges of −21.23~5.72% and 1.47~12.30% for SH-11037 and −22.85~4.96% and 1.2~13.8% for SH-11008, respectively. […]

[3] = Stability of SH-11037 in dog plasma; format: in vitro ADME; conditions: beagle, pH 7.4, SH-11037 1 µM, 37 °C, read-out: half-life (t1/2) of hydrolysis to SH-11008
Description: SH-11037 (1 μM) was incubated in triplicate in 0.1 M phosphate buffer (pH 7.4) or in mouse, dog, and human plasma to investigate its stability. SH-11037 (40 μM) in 50 vol% aqueous CH3CN was mixed with 0.1 M phosphate buffer (pH 7.4) or plasma diluted 3-fold with 0.1 M phosphate buffer (pH 7.4) to a final volume of 160 μL and a final concentration of 1 μM. The resulting solutions were then incubated at 37 °C in a shaking water bath. The incubations were terminated at selected times by adding 160 µL of ice-cold CH3CN containing glipizide (500 ng/mL) as the internal standard (IS). The resulting mixture was vortexed, sonicated, and centrifuged at 3000× g for 20 min. Aliquots of the supernatant were subjected to LC-MS/MS analysis described below in Section 2.6.2.
The LC-MS/MS system consisted of Agilent 1290 Infinity HPLC system and Agilent 6530 Accurate-Mass Quadrupole Time-of-Flight (Q-TOF) mass spectrometer equipped with dual AJS ESI ion source (Agilent Technologies Korea, Seoul, Korea). Chromatographic separation was performed on an Agilent Eclipse Plus C18 column (2.1 × 100 mm, 3.5 μm) with a Phenomenex Security Guard C18 guard column (4 × 20 mm) maintained at 40 °C. The mobile phase consisted of 0.1% formic acid in deionized water (A) and 0.1% formic acid in CH3CN (B): 0~2 min 5% B, 2~7 min to 95% B, and 7~10 min 95% B. Total run time including a 5 min equilibration time was 15 min. […]

SMILES	Cmax [1] [ng/mL]	Tmax [1] [min]	clearance [1] [mL/min/kg]	half-life ([1]; n = 3, read-out: t1/2 of SH-11008) [min]	AUC(0-inf) ([1]; read-out: AUCinf of SH-11008 (converted)) [ng·h/mL]	AUC(0-t) ([1]; read-out: AUClast of SH-11008 (converted)) [ng·h/mL]	Vd ([1]; read-out: Vss) [L/kg]	plasma levels of SH-11008 ([2]; after single p.o. dose of SH-11008 6 mg/kg, BQL) [ng/mL]	plasma level of SH-11037 ([2]; throughout the time course after single p.o. dose of SH-11037 10 mg/kg)	half-life at 1 µM [3] [min]
COc1ccc(CC2COc3cc(OC)c(OC)c(OC)c3C2=O)cc1O (stereo not shown) [SH-11008]	770 ± 1160	5	210 ± 17.2	3.5 ± 0.5	239	239	0.5 ± 0.1	< 0.48	–	–
COc1ccc(CC2COc3cc(OC)c(OC)c(OC)c3C2=O)cc1OC(=O)[C@H](Cc1ccccc1)NC(=O)OC(C)(C)C (stereo partly shown) [SH-11037]	–	–	–	–	–	–	–	–	BQL	69.1
